Results published in patent US4933354A, “2-pyrrolidone-5-carboxylic acid compounds useful for the treatment of mental disorders” (Kissei Pharmaceutical Co., Ltd., priority 1987, dated 1990).

system: ECS-induced amnesic mice; assay: One trial passive avoidance task by step-through test (ECS-induced amnesia); format: in vivo, mice (male, dd-strain); settings: oral, 1 μmole/mouse, 1 hr before training trial; test 24 hr after training
Procedure: Anti-amnesic effects of the compounds were determined by the following tests. Male mice of dd-strain, weighing 23-30 g, were employed for the experiment, and the test compounds were freshly dissolved in saline and administered orally at a dose of 1 μmole/mouse. (1) One trial passive avoidance task by step-through test A shuttle box composed of a light (7 cm high, 9 cm wide and 15 cm depth) and a dark (12 cm high, 13 cm wide and 15 cm depth) box; the former was lighted using […]-white light fluorescent bar lamp placed at the position of 40 cm from the floor and in the latter the stainless steel floor grids 2.5 mm in diameter were placed at intervals of 4 mm in order to give a foot shock. Both boxes were connected with a gate 3 cm in diameter. As the training trial, each animal was placed in the light box and a foot shock ([…]) was delivered through the floor grid immediately after the animal entered into the dark box, accordingly the animal learned a punishment for the entrance. […] Twenty-four hr after the training trial, the animal was placed again in the light box and step-through (ST) latency, time spent until the animal entered the dark box, was measured. […] The ST-latency on the test trial was measured up to 300 and 600 sec for control and amnesic group, respectively.

For `O=C1CCC(C(=O)OCc2ccc(Cl)cc2)N1` (centres unmarked) [Compound 1, p-Chlorobenzyl 2-pyrrolidone-5-carboxylate], the “ST-latency in ECS-induced amnesic mice” value was “prolonged the ST-latency in ECS-induced amnesic mice significantly”.

system: not listed separately; assay: Acute toxicity; settings: mouse, in vivo; male SCL-ICR mice, single shot, lethality at 1 week; route not given
Procedure: The test compounds were administered to male mice of SCL-ICR-strain, 7 weeks age, at several dosage (single shot) and LD50, 50% lethal dose, was estimated from the number of lethal mice at 1 week past to the administration.

`O=C1CCC(C(=O)OCc2ccc(Cl)cc2)N1` (centres unmarked) [Compound 1, p-Chlorobenzyl 2-pyrrolidone-5-carboxylate] and `O=C1CCC(C(=O)OCc2ccncc2)N1` (centres unmarked) [Compound 4, 4-Pyridylmethyl 2-pyrrolidone-5-carboxylate] cannot be ordered by LD50 at 168 h: over 2590 mg/kg for the first, over 2590 mg/kg for the second.

First: O=C1CCC(C(=O)OCc2ccccn2)N1 (centres unmarked) [Compound 2, 2-Pyridylmethyl 2-pyrrolidone-5-carboxylate]
Second: O=C1CCC(C(=O)OCCc2ccccn2)N1 (centres unmarked) [Compound 5, 2-(2-Pyridyl)ethyl 2-pyrrolidone-5-carboxylate]
The LD50 at 168 h of the first is lower: 1540 mg/kg for the first, over 2590 mg/kg for the second.

Going from `O=C1CCC(C(=O)OCc2cccnc2)N1` (centres unmarked) [Compound 3, 3-Pyridylmethyl 2-pyrrolidone-5-carboxylate] to `O=C1CCC(C(=O)OCCCc2ccccn2)N1` (centres unmarked) [Compound 6, 3-(2-Pyridyl)propyl 2-pyrrolidone-5-carboxylate], the LD50 at 168 h falls from over 2590 mg/kg to under 1250 mg/kg.

`O=C1CCC(C(=O)NCc2ccccn2)N1` (centres unmarked) [Compound 7, N-(2-Pyridylmethyl)-2-pyrrolidone-5-carboxamide] gave an LD50 at 168 h of over 2590 mg/kg.
